Assay in all cases: NCI anticancer screen, dose series, 48 h
In test [1] the test system is BT-549 breast.
The test system of test [2] is DU-145 prostate.
Test [3] has as its system KM12 colon.
For test [4], the system named is LOX IMVI melanoma.
Test [5] has as its system MCF7 breast.
For test [6], the system named is MDA-MB-231 breast.
Test [7] deals with OVCAR-5 ovarian.
For test [8], the system named is SF-539 CNS.
The test system of test [9] is SK-MEL-28 melanoma.
For test [10], the system named is SR leukemia.

Several values for one entry are separate records, joined by “and”; a condition that tells them apart may be missing. Identical values can stand only once.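 Five compound concentrations were applied to cells in 96-well plates for 48 hours; endpoints were derived by simple linear interpolation of the resulting dose-response curve. GI50 marks 50% less growth. TGI: total growth inhibition.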

For `O=C(O[C@H]1CN[C@H](C#Cc2cc3ncnc(Nc4ccc(Cc5ccccc5)cc4)c3s2)C1)N1CCOCC1`, the GI50 was 4.74 µM in [1]; 4 µM in [2]; 4.28 µM in [3]; 4 µM in [4]; 5.63 µM in test [5]; 4.56 µM in [6]. Besides, the GI50 in test [7] was 9 µM; in test [8], 4.42 µM; in [9], 4.78 µM; in test [10] it was 11.2 µM. Further, the TGI in test [1] is 10.6 µM; in test [2], 11 µM; in test [3], 8.72 µM; in test [4] it was 8.03 µM; in test [5], greater than 20.6 µM; in [6], 14.2 µM. Moreover, the TGI in test [7] was greater than 25 µM; in [8], 11.7 µM; in [9], 10.9 µM; in test [10], greater than 25 µM.

For the molecule `C[C@H]1O[C@@H](O[C@H]2[C@@H](O)C[C@H](O[C@H]3[C@@H](O)C[C@H](O[C@H]4CC[C@]5(C)C6C[C@@H](O)[C@]7(C)[C@@H](C8=CC(=O)OC8)CC[C@]7(O)C6CC[C@@H]5C4)O[C@@H]3C)O[C@@H]2C)C[C@H](O)[C@@H]1O` (some centres undefined), the GI50 in test [1] was 0.0246 µM; in [2], 0.0329 µM; in test [3], 0.144 µM; in [4] it was 0.06 µM; in test [5], 0.0521 µM; in test [6], 0.265 µM. In addition, the GI50 in test [7] was 0.114 µM; in test [8] it was 0.0648 µM; in test [9] it was 0.104 µM; in test [10], 0.0552 µM. The TGI in test [1] was 0.0928 µM; in test [2] it was 0.0968 µM; in test [3] it was 0.544 µM; in test [4], 0.141 µM; in test [5], 1.69 µM; in test [6] it was 1.32 µM. Also, the TGI in test [7] is 0.286 µM; in test [8] it was 0.139 µM; in test [9] it was 0.222 µM; in test [10] it was 0.307 µM.

In the case of `NC(=O)c1cccc(N)c1`, the GI50 in [1], in test [2], in test [3], in test [4], in test [5] and in [6] was greater than 100 µM throughout. Also, the GI50 in [7], in test [8], in [9] and in test [10] was greater than 100 µM throughout. Further, the TGI in test [1], in test [2], in test [3], in test [4], in test [5] and in test [6] was greater than 100 µM throughout. Further, the TGI in test [7], in test [8], in [9] and in [10] was greater than 100 µM in each case.

As to `COC(=O)c1c2c(c[n+]([O-])c1C)C(=O)C(NCc1ccccc1)=CC2=O`, the GI50 was 1.19 µM in [1]; 1.05 µM in test [2]; 0.608 µM in test [3]; 0.279 µM in test [4]; 0.224 µM in test [5]; 0.333 µM in test [6]. Besides, the GI50 in [7] was 1.2 µM; in test [8] it was 0.457 µM; in test [9], 1.6 µM; in [10], 1.29 µM. Besides, the TGI in [1] is 2.54 µM; in [2], 2.25 µM; in [3], 3.03 µM; in [4], 1.32 µM; in test [5], 0.726 µM; in [6], 2.27 µM. Moreover, the TGI in [7] is 2.57 µM; in test [8], 1.67 µM; in test [9], 3.29 µM; in test [10], greater than 100 µM.

Regarding `COc1cc2c3c(n(CCCN=[N+]=[N-])c(=O)c2cc1OC)-c1ccc(N)cc1C3=O`, the GI50 was 0.244 µM in [1]; 0.117 µM in test [2]; 0.334 µM in [3]; 0.0923 µM in test [4]; 0.143 µM in test [5]; 0.625 µM in test [6]. Also, the GI50 in test [7] was 0.633 µM; in [8], 0.0919 µM; in test [9], 0.613 µM; in test [10], 0.0276 µM. Further, the TGI in test [1] worked out at 6.4 µM; in test [2], 1.42 µM; in test [3] it was 1.16 µM; in test [4], 0.466 µM; in [6], 2.18 µM; in test [7], 1.33 µM. The TGI in test [8] came out at 0.325 µM; in test [9] it was 2.78 µM; in test [10], 0.498 µM.

For `COc1ccc(S(=O)(=O)Nc2cc(/C=C\c3cc(OC)c(OC)c(OC)c3)cc(OC)c2OC)cc1OC`, the GI50 is 0.664 µM in test [1]; 0.841 µM in test [2]; 0.639 µM in [3]; 0.472 µM in test [4]; 0.484 µM in test [5]; 2.43 µM in [6]. Moreover, the GI50 was 6.57 µM in test [7], 0.518 µM in test [8], 3.27 µM in test [9] and 0.704 µM in test [10]. Further, the TGI is 90.1 µM in test [1]; greater than 100 µM in [2]; greater than 100 µM in test [3]; greater than 100 µM in [4]; greater than 100 µM in test [5]; greater than 100 µM in [6]. In addition, the TGI in test [7] was greater than 100 µM; in test [8], 28.6 µM; in test [9], 61.3 µM; in [10] it was greater than 100 µM.

With `Cn1c(=O)c(Sc2ccccc2F)cc2cnc(NC3CCOCC3)nc21`, the GI50 in test [1], in test [2], in [3], in test [4], in test [5] and in test [6] was greater than 25 µM in each case. Further, the GI50 in test [7], in test [8], in [9] and in [10] was greater than 25 µM each time. The TGI in [1], in test [2], in [3], in [4], in test [5] and in test [6] was greater than 25 µM in each case. Further, the TGI in test [7], in test [8], in [9] and in test [10] was greater than 25 µM throughout.

With `COc1c(Nc2ncc(Cl)c(N[C@@H]3[C@H]4C=CC(C4)[C@@H]3C(N)=O)n2)ccc2c1CC[C@@H](N1CCOCC1)CC2`, the GI50 in test [1] was 3.66 µM; in test [2], 4.88 µM; in [3], 4.93 µM; in test [4], 2.11 µM; in test [5], 2.01 µM; in test [6] it was 2.24 µM. Further, the GI50 is 1.4 µM in [7], 2.3 µM in test [8], 3.25 µM in test [9] and 0.43 µM in test [10]. In addition, the TGI was 14.8 µM in [1]; 27.2 µM in test [2]; 25.2 µM in test [3]; 6.23 µM in test [4]; 17.1 µM in test [5]; 9.36 µM in test [6]. Besides, the TGI in [7] was 17.8 µM; in test [8] it was 8.01 µM; in [9] it was 17.7 µM; in test [10], 5.64 µM.

Take `COc1cccc(C2=NN(C(C)=O)C(c3cc(OC)c(OC)c(OC)c3)C2)c1` (centres undefined): the GI50 was 5.57 µM in test [1]; 2.87 µM in test [2]; 1.48 µM in test [3]; 7.22 µM in test [4]; 0.529 µM in [5]; 8.82 µM in test [6]. The GI50 was 8.09 µM in [7], 2.81 µM in test [8], greater than 22.8 µM in [9] and 0.437 µM in test [10]. For the same molecule, the TGI in test [1] was greater than 100 µM; in test [2] it was greater than 100 µM; in [3], greater than 100 µM; in test [4], greater than 100 µM; in test [5] it was greater than 32.3 µM; in test [6], greater than 100 µM. Besides, the TGI was greater than 100 µM in test [7], greater than 25.7 µM in test [8], greater than 100 µM in test [9] and greater than 100 µM in [10].

Turning to `CCN(CC)CCC(CNc1c2ccc([N+](=O)[O-])cc2nc2cc(OC)c(OC)cc12)c1ccccc1` (centres undefined), the GI50 was 1.49 µM and 0.74 µM in test [1]; 0.134 µM and 0.0582 µM in test [2]; 0.276 µM and 0.105 µM in [3]; 0.568 µM and 0.527 µM in [4]; 0.0363 µM and 0.0428 µM in test [5]; 0.174 µM and 0.178 µM in test [6]. Further, the GI50 in test [7] was 0.487 µM and 0.755 µM; in test [8] it was 0.38 µM and 0.423 µM; in [9], 0.347 µM and 0.278 µM; in test [10] it was 0.0379 µM and 0.057 µM. Besides, the TGI is 3.78 µM and 2 µM in test [1]; 1.04 µM and 0.301 µM in test [2]; 1.13 µM and 0.542 µM in [3]; 1.86 µM in test [4]; 0.905 µM and 1.23 µM in test [5]; 0.627 µM and 0.73 µM in test [6]. In addition, the TGI in test [7] is 1.93 µM and 2.3 µM; in test [8], 1.46 µM and 1.64 µM; in test [9], 1.23 µM and 0.831 µM; in test [10] it was 0.521 µM and 3.57 µM.

For `CNC(=O)c1cc(Oc2ccc3nc(NC(=O)c4cc(C(F)(F)F)cc(C(F)(F)F)c4)sc3c2)ccn1`, the GI50 in test [1] was 3.05 µM; in test [2], 3.69 µM; in test [3], 2.7 µM; in test [4], 3.39 µM; in test [5], 3.37 µM; in test [6], 2.88 µM. In addition, the GI50 is 4.23 µM in test [7], 3.14 µM in test [8], 3.76 µM in test [9] and 3.37 µM in test [10]. The TGI in [1] is 12.4 µM; in test [2], 15.9 µM; in test [3] it was 11 µM; in test [4], 15.1 µM; in test [5], 18 µM; in test [6] it was 6.63 µM. The TGI in test [7] was found to be 25 µM; in [8] it was 14.8 µM; in [9], 43.7 µM; in test [10], 15 µM.

With `S=c1cn[nH]c2ccc(Br)cc12`, the TGI in [1], in test [2], in [3], in [4], in test [5] and in test [6] was greater than 100 µM each time. Besides, the TGI in test [7], in [8], in test [9] and in [10] was greater than 100 µM in each case.

In the case of `Nc1nn(C(=O)Nc2ccc(Cc3ccccc3)cc2)c2ccc(Cl)cc12`, the GI50 is 12.4 µM in test [1]; 11.7 µM in test [2]; 0.0755 µM in test [3]; 0.137 µM in test [4]; 0.422 µM in test [5]; 9.48 µM in [6]. Moreover, the GI50 is 22.7 µM in test [7], 1.29 µM in test [8], 7.91 µM in [9] and 12.6 µM in [10]. Besides, the TGI in test [1] was greater than 66.3 µM; in [2], 33.8 µM; in test [3], greater than 100 µM; in test [4] it was 20.1 µM; in [5] it was 18 µM; in test [6] it was 50.2 µM. Also, the TGI in test [7] is greater than 100 µM; in test [8], 7.66 µM; in [9] it was greater than 100 µM; in test [10] it was 26.5 µM.

Consider `O=[N+]([O-])c1ccccc1S(=O)(=O)c1ccccc1[N+](=O)[O-]`, for which the TGI in [1], in test [2], in test [3], in [4], in test [5] and in test [6] was greater than 100 µM each time. Further, the TGI in test [7] is greater than 100 µM; in test [8] it was greater than 96.8 µM; in test [9] it was greater than 100 µM; in [10] it was greater than 100 µM.

As to `C[C@@]12CCC[C@@](C)(C(=O)O)C1CC[C@]13C=C(CO)[C@](O)(CCC12)C3` (some centres undefined), the GI50 in test [1], in test [2], in test [3], in test [4], in [5] and in test [6] was greater than 100 µM in each case. Moreover, the GI50 in test [7], in test [8], in [9] and in test [10] was greater than 100 µM in each case. In addition, the TGI in test [1], in test [2], in test [3], in [4], in test [5] and in test [6] was greater than 100 µM throughout. In addition, the TGI in test [7], in test [8], in test [9] and in test [10] was greater than 100 µM each time.

These data come from PubChem BioAssay (NCI).
